Like-named read-outs stand apart in the source and are kept apart here.
Tests used:
vasopressin V2 receptor [1] = molecular target: T1, vasopressin V2 receptor (Homo sapiens, UniProt P30518); experiment: In-clinic pharmacokinetic study: spot urine osmolality after twice daily lixivaptan; assay type: in vivo
T1 construct: Lixivaptan antagonizes the effects of vasopressin that are mediated by the V2 receptor; from tissue; host or cells: living human subjects (in vivo clinical studies); the receptor is the subjects' own and no tissue was isolated
T1 sequence (P30518 whole entry): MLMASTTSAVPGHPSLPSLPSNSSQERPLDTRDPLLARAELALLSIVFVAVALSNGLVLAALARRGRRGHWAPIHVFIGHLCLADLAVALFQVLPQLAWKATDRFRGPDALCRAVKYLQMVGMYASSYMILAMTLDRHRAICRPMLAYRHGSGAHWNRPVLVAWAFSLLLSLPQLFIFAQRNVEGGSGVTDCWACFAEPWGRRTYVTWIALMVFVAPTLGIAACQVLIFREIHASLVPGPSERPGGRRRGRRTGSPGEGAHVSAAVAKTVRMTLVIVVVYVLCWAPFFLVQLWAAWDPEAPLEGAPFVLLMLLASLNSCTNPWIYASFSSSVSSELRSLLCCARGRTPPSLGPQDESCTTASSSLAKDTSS
Procedure: Subjects received lixivaptan at total daily doses of 100 mg, 200 mg, or 400 mg (administered as 50, 100, and 200 mg Q12H). […] There were to be approximately 20 subjects enrolled per dose level. An approximately equal number of males and females were enrolled at each dose level such that neither gender was represented by fewer than 8 subjects. The starting date for each cohort subjects was staggered by 7 days for logistical purposes. Screening evaluations were performed within 28 days prior to Day 1.
The following doses of lixivaptan were administered to subjects in this study: (a) Lixivaptan 100 mg, administered as 50 mg [1×50 mg capsule] every 12 hours×15 doses; (b) lixivaptan 200 mg, administered as 100 mg [2×50 mg capsules] every 12 hours×15 doses; and (c) Lixivaptan 400 mg, administered as 200 mg [4×50 mg capsules] every 12 hours×15 doses.
Prior to the morning doses of lixivaptan on Days 1 and 8, subjects fasted for approximately 10 hours prior to lixivaptan administration and 4 hours after lixivaptan administration. All other doses were administered under fasting conditions, either 2 hours before or 2 hours after meals. The study medication was administered with 240 milliliters (mL) room temperature water. Subjects were not to receive any oral fluids, other than those used to administer the dose, for 1 hour before and 1 hour after dose administration. Subjects remained sitting or semi-supine, except to void, for 6 hours following the first two doses. While in the clinic, the subjects refrained from strenuous physical activity.
Spot urine collections for urine osmolality determinations were obtained during the clinic stay and at the end of study (EOS).
Spot urine osmolality was evaluated at different times during the day.

[2] = In-clinic pharmacokinetic study: plasma pharmacokinetics and dose proportionality; assay type: in vivo, human; details: 100 mg to 400 mg administered as 2 divided doses
Procedure: The primary objective of this study was to assess the pharmacokinetics and dose proportionality of lixivaptan over the dose range targeted for clinical use (e.g., 100 to 400 mg daily) using unit doses of 50 mg and multiples thereof given twice daily for 7.5 days.
Subjects received lixivaptan at total daily doses of 100 mg, 200 mg, or 400 mg (administered as 50, 100, and 200 mg Q12H). Subjects were to be enrolled into the study in two cohorts of 30 subjects, but actual cohort numbers were 23 and 34 subjects. Of the 57 subjects enrolled in the study, 27 were female (47.4%) and 30 were male (52.6%). The majority of subjects were White (35/57, 61.4%) and of Hispanic or Latino ethnicity (46/57, 80.7%). The overall mean age of subjects in the study was 33.6 (8.31) years, and the overall mean body mass index for subjects was 26.2 (3.79). There were to be approximately 20 subjects enrolled per dose level. An approximately equal number of males and females were enrolled at each dose level such that neither gender was represented by fewer than 8 subjects. The starting date for each cohort subjects was staggered by 7 days for logistical purposes. Screening evaluations were performed within 28 days prior to Day 1. […]

[3] = Single 100 mg oral dose study in ESRD and normal renal function subjects: pharmacokinetics and tolerability; assay type: in vivo, human; details: for AUC(0-inf) / AUC(0-t) / Cmax / Vd/F / half-life: po, 100 mg; for Vd/F: read-out: VZ/F Mean; for half-life: read-out: t1/2 Median (converted)
Procedure: A clinical study was undertaken to determine the pharmacokinetics (PK) of lixivaptan in renally impaired subjects. In this study, the PK of lixivaptan following a single 100 mg oral dose of lixivaptan was evaluated in subjects with end-stage renal disease (ESRD) and control subjects with normal renal function. Pharmacodynamic (PD) evaluations, including vasopressin concentration, serum sodium concentration, urine volume, and urine osmolality were assessed. Overall total lixivaptan exposure was, on average, 32 and 31% lower in ESRD subjects compared to subjects with normal renal function, as assessed by AUC0-∞ and AUC0-t, respectively. Similarly, peak total lixivaptan concentrations were, on average, 31% lower in subjects with ESRD.

vasopressin V2 receptor [4] = molecular target: T1, vasopressin V2 receptor; experiment: Uosm in clinical studies in healthy subjects and various patient populations; assay type: in vivo; details: healthy subjects, hyponatremia patients, ESRD patients
Procedure: Lixivaptan in healthy volunteers was tested in a randomized, double-blind, placebo-controlled, ascending multiple-dose, safety and tolerance clinical study in 98 healthy male subjects.
Subjects with Syndrome of Inappropriate Anti-Diuretic Hormone (SIADH) secretion were tested in a randomized, double-blind, placebo-controlled, ascending single-dose, safety and tolerance study.

[5] = human, in vivo, single 100 mg oral dose, ESRD
[6] = human, in vivo, single 100 mg oral dose, Normal
[7] = single 100 mg oral dose, Normal

Cc1ccc(F)cc1C(=O)Nc1ccc(C(=O)N2Cc3cccn3Cc3ccccc32)c(Cl)c1 [Lixivaptan, 5-fluoro-2-methyl-N-[4-(5H-pyrrolo[2,1-C] [1,4]benzodiazepin-10(11H)-ylcarbonyl)-3-chlorophenyl]benzamide]
% of subjects with full 24 hour suppression of Uosm to 300 mOsm/kg or lower (vasopressin V2 receptor [1]; 50 mg lixivaptan twice daily): approximately 16% | Urine Osmolality Mean (vasopressin V2 receptor [1]; 100 mg as 50 mg Q12H, Day 1 Hour 1): 250.9 mOsm/kg | Urine Osmolality Mean (vasopressin V2 receptor [1]; 100 mg as 50 mg Q12H, Day 1 Hour 2): 79.8 mOsm/kg | Urine Osmolality Mean (vasopressin V2 receptor [1]; 100 mg as 50 mg Q12H, Day 1 Hour 4): 150.6 mOsm/kg | Urine Osmolality Mean (vasopressin V2 receptor [1]; 100 mg as 50 mg Q12H, Day 1 Hour 12): 378.7 mOsm/kg | Urine Osmolality Mean (vasopressin V2 receptor [1]; 100 mg as 50 mg Q12H, Day 8 Hour 0): 464.7 mOsm/kg | Urine Osmolality Mean (vasopressin V2 receptor [1]; 100 mg as 50 mg Q12H, Day 8 Hour 1): 222.5 mOsm/kg | Urine Osmolality Mean (vasopressin V2 receptor [1]; 100 mg as 50 mg Q12H, Day 8 Hour 2): 139.1 mOsm/kg | Urine Osmolality Mean (vasopressin V2 receptor [1]; 100 mg as 50 mg Q12H, Day 8 Hour 4): 274.3 mOsm/kg | Urine Osmolality Mean (vasopressin V2 receptor [1]; 100 mg as 50 mg Q12H, Day 8 Hour 12): 447.4 mOsm/kg | Urine Osmolality Mean (vasopressin V2 receptor [1]; 100 mg as 50 mg Q12H, Day 9 Hour 24 after dosing): 564.7 mOsm/kg | Urine Osmolality Mean (vasopressin V2 receptor [1]; 100 mg as 50 mg Q12H, EOS (end of study, Day 29)): 805.5 mOsm/kg | % of subjects with full 24 hour suppression of Uosm to 300 mOsm/kg or lower (vasopressin V2 receptor [1]; 100 mg twice daily): approximately 46% | Urine Osmolality Mean (vasopressin V2 receptor [1]; 200 mg as 100 mg Q12H, Day 1 Hour 1): 285.9 mOsm/kg | Urine Osmolality Mean (vasopressin V2 receptor [1]; 200 mg as 100 mg Q12H, Day 1 Hour 2): 76.9 mOsm/kg | Urine Osmolality Mean (vasopressin V2 receptor [1]; 200 mg as 100 mg Q12H, Day 1 Hour 4): 136.5 mOsm/kg | Urine Osmolality Mean (vasopressin V2 receptor [1]; 200 mg as 100 mg Q12H, Day 1 Hour 12): 369.9 mOsm/kg | Urine Osmolality Mean (vasopressin V2 receptor [1]; 200 mg as 100 mg Q12H, Day 8 Hour 0): 323.6 mOsm/kg | Urine Osmolality Mean (vasopressin V2 receptor [1]; 200 mg as 100 mg Q12H, Day 8 Hour 1): 156.7 mOsm/kg | Urine Osmolality Mean (vasopressin V2 receptor [1]; 200 mg as 100 mg Q12H, Day 8 Hour 2): 93.9 mOsm/kg | Urine Osmolality Mean (vasopressin V2 receptor [1]; 200 mg as 100 mg Q12H, Day 8 Hour 4): 186.7 mOsm/kg | Urine Osmolality Mean (vasopressin V2 receptor [1]; 200 mg as 100 mg Q12H, Day 8 Hour 12): 334.7 mOsm/kg | Urine Osmolality Mean (vasopressin V2 receptor [1]; 200 mg as 100 mg Q12H, Day 9 Hour 24 after dosing): 465.9 mOsm/kg | Urine Osmolality Mean (vasopressin V2 receptor [1]; 200 mg as 100 mg Q12H, EOS (end of study, Day 29)): 694.1 mOsm/kg | % of subjects with full 24 hour suppression of Uosm to 300 mOsm/kg or lower (% responders) (vasopressin V2 receptor [1]; 200 mg twice daily): approximately 78% | Urine Osmolality Mean (vasopressin V2 receptor [1]; 400 mg as 200 mg Q12H, Day 1 Hour 1): 237.4 mOsm/kg | Urine Osmolality Mean (vasopressin V2 receptor [1]; 400 mg as 200 mg Q12H, Day 1 Hour 2): 74.5 mOsm/kg | Urine Osmolality Mean (vasopressin V2 receptor [1]; 400 mg as 200 mg Q12H, Day 1 Hour 4): 91.0 mOsm/kg | Urine Osmolality Mean (vasopressin V2 receptor [1]; 400 mg as 200 mg Q12H, Day 1 Hour 12): 294.1 mOsm/kg | Urine Osmolality Mean (vasopressin V2 receptor [1]; 400 mg as 200 mg Q12H, Day 8 Hour 0): 231.0 mOsm/kg | Urine Osmolality Mean (vasopressin V2 receptor [1]; 400 mg as 200 mg Q12H, Day 8 Hour 1): 106.9 mOsm/kg | Urine Osmolality Mean (vasopressin V2 receptor [1]; 400 mg as 200 mg Q12H, Day 8 Hour 2): 82.3 mOsm/kg | Urine Osmolality Mean (vasopressin V2 receptor [1]; 400 mg as 200 mg Q12H, Day 8 Hour 4): 139.1 mOsm/kg | Urine Osmolality Mean (vasopressin V2 receptor [1]; 400 mg as 200 mg Q12H, Day 8 Hour 12): 219.5 mOsm/kg | Urine Osmolality Mean (vasopressin V2 receptor [1]; 400 mg as 200 mg Q12H, Day 9 Hour 24 after dosing): 390.3 mOsm/kg | Urine Osmolality Mean (vasopressin V2 receptor [1]; 400 mg as 200 mg Q12H, EOS (end of study, Day 29)): 704.8 mOsm/kg | time of mean maximal reduction of urine osmolality (vasopressin V2 receptor [1]; after first dose on Day 1 and Day 8, regardless of the dose): 2 h | Urine Osmolality Mean (vasopressin V2 receptor [1]; healthy subjects, 100 mg as 50 mg Q12H, Day 1 Hour 0 (baseline)): 587.8 mOsm/kg | Urine Osmolality Mean (vasopressin V2 receptor [1]; healthy subjects, 200 mg as 100 mg Q12H, Day 1 Hour 0 (baseline)): 602.7 mOsm/kg | Urine Osmolality Mean (vasopressin V2 receptor [1]; healthy subjects, 400 mg as 200 mg Q12H, Day 1 Hour 0 (baseline)): 600.1 mOsm/kg | dose proportionality of pharmacokinetic parameters (Cmax, AUC(0-12)) [2]: proportional kinetics | tolerability of single doses ([3]; both groups (normal, ESRD)): well tolerated | AUC(0-inf) [3, 5]: 856 ng·h/mL | AUC(0-t) [3, 5]: 809 ng·h/mL | Cmax [3, 5]: 238 ng/mL | Vd/F [3, 5]: 2740 L | half-life [3, 5]: 800 min | AUC(0-t) [3, 6]: 1200 ng·h/mL | Cmax [3, 6]: 383 ng/mL | AUC(0-inf) ([3]; human, in vivo, single 100 mg oral dose, Normal renal function): 1290 ng·h/mL | Vd/F [3, 6]: 1750 L | half-life [3, 6]: 722 min | Tmax ([3]; human, in vivo, single 100 mg oral dose, Normal, read-out: tmax Median): 1 h | peak total lixivaptan concentrations lower in subjects with ESRD ([3]; single 100 mg oral dose): 31% | total lixivaptan exposure (AUC0-t) lower in ESRD subjects compared to normal renal function ([3]; single 100 mg oral dose): 31% | total lixivaptan exposure (AUC0-∞) lower in ESRD subjects compared to normal renal function ([3]; single 100 mg oral dose): 32% | CL/F Mean ([3]; single 100 mg oral dose, ESRD): 137 L/h | Lambdaz Median ([3]; single 100 mg oral dose, ESRD): 0.05752 h⁻¹ | CL/F Mean [3, 7]: 94.2 L/h | Lambdaz Median [3, 7]: 0.06035 h⁻¹ | urinary osmolality suppressed to levels below target threshold (vasopressin V2 receptor [4]): < 300 mOsm/kg

From patent US11241441B2, “Formulations of lixivaptan for the treatment of polycystic disease” (PALLADIO BIOSCIENCES, INC., priority 2017, dated 2022)
